Measurements: patent US20080187512A1, “Treatment for spinal muscular atrophy” (Academia Sinica, priority 2007, published 2008)

What was measured:
Type in all cases: cell-based, mouse
Stat2 (pY705) = test: Signaling pathway screen in SMN2-NSC34 cells
ERK1/2 (pT202/pY204) = test: Signaling pathway screen in SMN2-NSC34 cells
SMN2 [1] = test: SMN2 splicing pattern, semi-quantitative RT-PCR in SMA-like MEFs; set-up: key to SMN2 splicing pattern MEF: −: no effect; +: effective; +++: most effective; conditions: SMA-like MEFs; for SMN2 splicing pattern MEF: TSA 10 nM, sodium butyrate 25 mM, aclarubicin 80 nM, sodium vanadate 50 μM; for influence on SMN2 expression: time-course RT-PCR
Stat1 (pY701) = test: Signaling pathway screen in SMN2-NSC34 cells
Stat6 (pT641) = test: Signaling pathway screen in SMN2-NSC34 cells
Stat5 (pT694) = test: Signaling pathway screen in SMN2-NSC34 cells; set-up: Stat5 (pT694) cellular response: key: −: decreasing; +/−: no activation; +: slight activation; ++: minor activation; +++: significant activation; conditions: SMN2-NSC34 cells; for phosphorylation level of Stat5 increased compared to control cells: treatment for 4 hours, α-tubulin internal control
Method: (§1) Western blot analysis. Cells treated by dsRNA, compounds or Stat5A1*6 transfected were detached by scraping, pelletting and rinsing in PBS. Cell pellets were collected after centrifugation and lysed on ice in modified RIPA buffer (50 mM Tris-HCl (pH7.4), 1% NP-40, 0.25% deoxycholic acid, 0.15M NaCl, 1 mM EDTA, 1 mM PMSF/NaF/sodium orthovanadate, and protease inhibitors cocktail (Roche, Mannheim, Germany) for 30 min. After centrifugation, the supernatants were collected and kept frozen at −20° C. Protein concentrations were determined by Bio-Rad protein assay method. For Western blot analysis, protein samples were boiled for 5 min and electrophoresed on 8% or 10% SDS-polyacrylamide gel in a 1× running buffer (25 mM Tris, 192 mM glycine, 3.4 mM SDS, pH 8.3) and subsequently electrotransferred to Polyvinylidene Fluoride tansfer membrane (Pall, Pensacola, Fla.) using a TE 22 mini-tank transfer unit (Amersham Biosciences, San Francisco, Calif.) at 35 volts overnight in transfer buffer (25 mM Tris, 192 mM glycine, 20% methanol, pH8.3). The blotting membranes were incubated in blocking solution (PBS, 5% non-fat milk, 0.2% Tween-20) for 1 hour at room temperature, and then incubated in the same solution with the primary antibody (human-specific SMN/1:1000; SMN/1:5000, Transduction Laboratories, Lexington, Ky.; phospho-Stat5a/b/1:1000, Cell signaling, Beverly, Mass.; phospho-Jak2/1:1000, Upstate, Lake Placid, N.Y.; Flag BioM2/1:1000, Sigma, St. Louis, MO; c-myc/1:200, Santa Cruz Biotech, Santa Cruz, Calif.; α-Tubilin/1:10000, Upstate, Lake Placid, N.Y., MO), overnight at 4° C. The membranes were washed and incubated in the blocking solution with the proper HRP-conjugated secondary antibody at 1/5000 dilution (Chemicon, Temecula, Calif.) for 1 hour at room temperature. After washing three times in PBS containing 0.1% Tween-20, the signals were visualized by autoradiography (Fuji Medical X-ray film, Fuji Photos, Tokyo) using enhanced chemi-luminescence (ECL detection system; Perkin-Elmer, Boston, Calif.). Western blot quantification was performed by scanning the auto-radiographs with a computerized densitometer. Signal intensities were determined by densitometry analysis (Fuji film LAS-1000 plus pictography) using the program Phoreticx 1D (Phoreticx International).
(§2) Therefore, TSA, aclarubicin and sodium vanadate all induce the activation of Stat5A in motor neuron-like NSC34 cells.

Stat3 (pY705) = test: Signaling pathway screen in SMN2-NSC34 cells
Jak2 (pY1007/pY1008) = test: Signaling pathway screen in SMN2-NSC34 cells; conditions: for Jak2 activation: 2-4 hours after treatment; for Jak2 (pY1007/pY1008) cellular response: SMN2-NSC34 cells; on Jak2 (pY1007/pY1008) cellular response: key: −: decreasing; +/−: no activation; +: slight activation; ++: minor activation; +++: significant activation
Method: as §1, §2

P38 (pT180/pY182) = test: Signaling pathway screen in SMN2-NSC34 cells
SMN2 [2] = test: SMN2 splicing pattern, semi-quantitative RT-PCR in SMN2-NSC34 cells; set-up: key to SMN2 splicing pattern SMN2-NSC34: −: no effect; +: effective; +++: most effective; conditions: SMN2-NSC34 cells; TSA 10 nM, sodium butyrate 25 mM, aclarubicin 80 nM, sodium vanadate 100 μM
Method: Cell culture and chemical/dsRNA treatment. Mouse embryonic fibroblasts (MEFs) were prepared using the standard protocol. Briefly, E13.5 day embryo was isolated; the uterine deciduas were cut away, and the yolk sac was removed. The embryo was then scraped out to remove non-fibroblastic tissue, and the head severed for genotyping. Embryo body was minced in 0.25% Trypsin-EDTA and incubated for 30 min. It was then added to MEF culture media, and the cell suspension spun for ˜5 min at 1,000 rpm in the tissue culture centrifuge to pellet cells. The supernatant was aspirated off and the cell pellet immediately resuspended in 10 mL of fresh MEF culture media. The MEFs were allowed to reach confluency so the cells could be passaged for further experiments. Cultured MEFs and SMN2-NSC34 cells were maintained in Dulbecco's modified Eagle medium (Invitrogen, Carlsbad, Calif.) containing 10% heat-inactivated fetal bovine serum (Hyclone, Logan, Utah) and 1% penicillin-streptomycin (Invitrogen, Carlsbad, Calif.) and were incubated at 37° C. in a 5% CO2 humidified atmosphere. The cells were plated the day preceding treatment with each chemical and harvested at the indicated time.
Semi-quantitative PCR/RT-PCR. The genomic DNA from E13.5 SMA embryos was extracted. A specific primer pair, SMN forward 5′-[…]-3′ (SEQ ID NO:21) and SMN backward 5′-[…]-3′ (SEQ ID NO:22), was designed for recognition of both murine Smn and human SMN2. The PCR program initially started with a 95° C. denaturation for 10 min, followed by 19 to 26 cycles of 95° C./1 min. 53° C./1.5 min, 72° C./2 min to assay the linear range for both Smn and SMN2. For RT-PCR assay, total RNA was extracted at indicated time points from SMN2-NSC34 cells with sodium vanadate, TSA, and aclarubicin treatment or with an increasing amount of Stat5A1*6 transfection by using the TRizol reagent (Invitrogen, Carlsbad, Calif.). To amplify the exon7 inclusion/exclusion form of SMN2 transcripts, RT-PCR were performed using a primer set P5P6 as previously described (15). The transcript from the mouse glyceraldehyde-3-phosphate dehydrogenase (Gapdh) gene or the β-Actin gene was amplified using the primer pairs: Gapdh forward: 5′-[…]-3′ (SEQ ID NO:23), and backward: 5′-[…]-3′ (SEQ ID NO:24) (56° C.), and β-Actin forward: 5′-[…]-3′ (SEQ ID NO:25), and backward 5′-[…]-3′ (SEQ ID NO:26) (59° C.), and this allowed control of equal amounts of template. […] The gel images were digitally captured with a CCD camera and analyzed with the Alphalmager™. […] Relative total SMN2 transcript levels were determined from Stat5A1*6 transfected SMN2-NSC34 cells in a minimum of three independent experiments. Differences in ratios were determined to be significant by an independent two-tailed t-test, with *, P<0.05, **, P<0.005, ***, p<0.001.

JNK (pT183/pY185) = test: Signaling pathway screen in SMN2-NSC34 cells

CC[C@@]1(O)C[C@H](O[C@H]2C[C@H](N(C)C)[C@H](O[C@H]3C[C@H](O)[C@H](O[C@H]4CCC(=O)[C@H](C)O4)[C@H](C)O3)[C@H](C)O2)c2c(cc3c(c2O)C(=O)c2c(O)cccc2C3=O)[C@H]1C(=O)OC [Aclarubicin]
Stat2 (pY705) cellular response (Stat2 (pY705); 4 hrs): + | Stat2 (pY705) cellular response (Stat2 (pY705); 8 hrs): +/− | ERK1/2 (pT202/pY204) cellular response (ERK1/2 (pT202/pY204); 4 hrs): +/− | ERK1/2 (pT202/pY204) cellular response (ERK1/2 (pT202/pY204); 8 hrs): +/− | SMN2 splicing pattern MEF (SMN2 [1]): + | influence on SMN2 expression (SMN2 [1]): found to influence SMN2 expression | Stat1 (pY701) cellular response (Stat1 (pY701); 4 hrs): +/− | Stat1 (pY701) cellular response (Stat1 (pY701); 8 hrs): +/− | Stat6 (pT641) cellular response (Stat6 (pT641); 4 hrs): +/− | Stat6 (pT641) cellular response (Stat6 (pT641); 8 hrs): − | Stat5 (pT694) cellular response (Stat5 (pT694); 4 hrs): ++ | Stat5 phosphorylation status at 8 hours (Stat5 (pT694)): remained activated | Stat5 (pT694) cellular response (Stat5 (pT694); 8 hrs): +++ | phosphorylation level of Stat5 increased compared to control cells (Stat5 (pT694)): about 2 fold | Stat3 (pY705) cellular response (Stat3 (pY705); 4 hrs): + | Stat3 (pY705) cellular response (Stat3 (pY705); 8 hrs): ++ | Jak2 activation (Jak2 (pY1007/pY1008)): found activated | Jak2 (pY1007/pY1008) cellular response (Jak2 (pY1007/pY1008); 4 hrs): + | Jak2 (pY1007/pY1008) cellular response (Jak2 (pY1007/pY1008); 8 hrs): +/− | P38 (pT180/pY182) cellular response (P38 (pT180/pY182); 4 hrs): +/− | P38 (pT180/pY182) cellular response (P38 (pT180/pY182); 8 hrs): +/−

CC1=C(/C=C/C(C)=C/C=C/C(C)=C/C(=O)O)C(C)(C)CCC1 [All-trans retinoic acid]
SMN2 splicing pattern MEF (SMN2 [1]): −

NC(=O)NO [Hydroxyurea]
SMN2 splicing pattern MEF (SMN2 [1]): −

CC(=O)N[C@@H](CS)C(=O)O [N-Acetyl-L-cysteine]
SMN2 splicing pattern MEF (SMN2 [1]): −

CCCCCCCCCCCCCC(=O)O[C@@H]1[C@@H](C)[C@@]2(O)[C@@H](C=C(CO)C[C@]3(O)C(=O)C(C)=C[C@@H]23)[C@@H]2C(C)(C)[C@]12OC(C)=O [Phorbol-12-myristate-13-acetate]
SMN2 splicing pattern MEF (SMN2 [1]): −

CCCC(=O)[O-].[Na+] [Sodium butyrate]
SMN2 splicing pattern MEF (SMN2 [1]): + | SMN2 splicing pattern SMN2-NSC34 (SMN2 [2]): +

CC(/C=C/C(=O)NO)=C\[C@@H](C)C(=O)c1ccc(N(C)C)cc1 [Trichostatin A (TSA), Trichostatin A]
Stat2 (pY705) cellular response (Stat2 (pY705); 4 hrs): +/− | Stat2 (pY705) cellular response (Stat2 (pY705); 8 hrs): +/− | ERK1/2 (pT202/pY204) cellular response (ERK1/2 (pT202/pY204); 4 hrs): + | ERK1/2 (pT202/pY204) cellular response (ERK1/2 (pT202/pY204); 8 hrs): + | SMN2 splicing pattern MEF (SMN2 [1]): + | influence on SMN2 expression (SMN2 [1]): found to influence SMN2 expression | Stat1 (pY701) cellular response (Stat1 (pY701); 4 hrs): − | Stat1 (pY701) cellular response (Stat1 (pY701); 8 hrs): − | Stat6 (pT641) cellular response (Stat6 (pT641); 4 hrs): +/− | Stat6 (pT641) cellular response (Stat6 (pT641); 8 hrs): − | Stat5 (pT694) cellular response (Stat5 (pT694); 4 hrs): ++ | Stat5 phosphorylation status at 8 hours (Stat5 (pT694)): remained activated | Stat5 (pT694) cellular response (Stat5 (pT694); 8 hrs): +++ | phosphorylation level of Stat5 increased compared to control cells (Stat5 (pT694)): about 2 fold | JNK (pT183/pY185) cellular response (JNK (pT183/pY185); 4 hrs): +/− | JNK (pT183/pY185) cellular response (JNK (pT183/pY185); 8 hrs): + | Stat3 (pY705) cellular response (Stat3 (pY705); 4 hrs): + | Stat3 (pY705) cellular response (Stat3 (pY705); 8 hrs): ++ | Jak2 activation (Jak2 (pY1007/pY1008)): found activated | Jak2 (pY1007/pY1008) cellular response (Jak2 (pY1007/pY1008); 4 hrs): + | Jak2 (pY1007/pY1008) cellular response (Jak2 (pY1007/pY1008); 8 hrs): +/− | P38 (pT180/pY182) cellular response (P38 (pT180/pY182); 4 hrs): +/− | P38 (pT180/pY182) cellular response (P38 (pT180/pY182); 8 hrs): +
